From paper PMC5483439, “The Effect of Pungent and Tingling Compounds from Piper nigrum L. on Background K^+ Currents” (Frontiers in Pharmacology, 2017)

Columns and labels:
tongue surface = test system: tongue surface; set-up: method as in Dawid et al., 2012; conditions: human, filter paper on tongue; ref Dawid et al., 2012; cited from earlier work
mKCNK9 = molecular target: T1, mKCNK9 (Mus musculus, UniProt Q3LS21); test: Two-electrode voltage clamp on Xenopus oocytes expressing mKCNK9; format: cell-based; conditions: 1–1000 μM
T1 construct: expressed in transfected cells; host or cells: Xenopus laevis oocytes injected with cRNA (subcloned into pSGEM; clone from Dr. D. Bayliss)
Text: (§1) Human KCNK3 (TASK-1, K2P3.1) cloned into the expression vector pIRES-CD8 was a gift from Dr. Fabrice Duprat (Institut National de la Santé et de la Recherche Médicale, Antipolis, France). Human KCNK18 (hTRESK, K2P18.1), cloned into the plasmid pEXO, was a gift from Dr. P. Enyedi (Semmelweis University, Budapest, Hungary). These plasmids were linearized with the restriction enzymes BamHI and XbaI, respectively, and then used as templates for in vitro transcription. Human KCNK9 (hTASK-3, K2P9.1) cloned into the expression vector pCR4-TOPO, was purchased from Imagenes (Berlin, Germany). The plasmid was linearized with the restriction enzyme SspI, to generate a linear cDNA template for in vitro transcription. mKCNK3 was isolated from mouse heart by standard procedures and inserted into pSGEM. mKCNK9 and mKCNK18 were kindly provided by Dr. D. Bayliss (University of Virginia, Charlottesville, VA, United States) and Prof. Dr. P. Enyedi (Semmelweis University, Budapest, Hungary). Both channels were subcloned into pSGEM. The pSGEM plasmids were subsequently linearized with the restriction enzyme PacI. The capped RNAs were synthesized in the presence of the capping analog m7G(5′)ppp(5′)G using the AmpliCap-T7 Message Maker kit (Epicentre, Madison, WI, United States). The cRNA was dissolved in nuclease-free water to obtain a final concentration of 100 ng/μL. […]

mKCNK18 = test system: T2, mKCNK18; test: Two-electrode voltage clamp on Xenopus oocytes expressing mKCNK18; format: cell-based, mouse; conditions: 1–1000 μM
T2 construct: expressed in transfected cells; host or cells: Xenopus laevis oocytes injected with cRNA (subcloned into pSGEM; clone from Prof; Dr. P. Enyedi)
Text: as §1

T1 sequence (Q3LS21 whole entry): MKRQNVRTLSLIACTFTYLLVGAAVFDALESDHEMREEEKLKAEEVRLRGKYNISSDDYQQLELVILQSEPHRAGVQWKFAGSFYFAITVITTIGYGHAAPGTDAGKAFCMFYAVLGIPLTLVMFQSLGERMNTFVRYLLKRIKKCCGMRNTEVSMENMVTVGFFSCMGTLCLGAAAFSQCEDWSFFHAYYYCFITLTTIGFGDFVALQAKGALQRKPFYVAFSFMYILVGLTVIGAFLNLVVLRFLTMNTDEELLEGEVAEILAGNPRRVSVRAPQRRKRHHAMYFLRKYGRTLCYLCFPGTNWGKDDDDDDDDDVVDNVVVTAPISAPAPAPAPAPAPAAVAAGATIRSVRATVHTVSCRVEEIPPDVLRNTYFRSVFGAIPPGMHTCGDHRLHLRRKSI

IC50 (mKCNK9): 214 ± 60.1 µM
SMILES: O=C(/C=C/C=C/c1ccc2c(c1)OCO2)N1CCCCC1 [1a, piperine]
pungent threshold concentration (tongue surface): 3.0 nmol/cm^2
effect on mKCNK18 (mKCNK18): much less affected
